Patent US10954253B2, “1,2-dihydro-3H-pyrazolo[3,4-d]pyrimidin-3-one derivative as Wee1 inhibitor” (SHIJIAZHUANG SAGACITY NEW DRUG DEVELOPMENT CO., LTD., priority 2017, dated 2021)

Biological target: Wee1 (Homo sapiens (Human), UniProt P30291)
Assay: In vitro enzymatic inhibitory activity (33P-ATP filter-binding kinase assay, MBP substrate)
Assay type: biochemical
Settings: Wee-1 150 nM, MBP 20 μM
Procedure: The compounds of the present invention for experimental use were all self-prepared, and their chemical names and structural formulas are shown in the preparation embodiments of the respective compounds. The experimental tests were carried out in Reaction Biology Corporation, USA, and the experimental results were provided by the company. Basic reaction buffer: 20 mM hydroxyethylpiperazine ethanesulfuric acid (pH 7.5), 10 mM magnesium chloride, 1 mM EGTA, 0.02% Brij35, 0.02 mg/mL bovine serum albumin, 0.1 mM Na3VO4, 2 mM DTT, 1% DMSO Enzyme: Wee-1 concentration is 150 nM Matrix: MBP concentration is 20 μM The tested compound was formulated into a 5 mM solution with 100% DMSO, and a 10 points 3-fold gradient dilution was performed with DMSO through an automated pipetting station epMotion 5070. 1. Fresh matrix configuration reaction buffer was prepared; 2. The Wee-1 was added into the matrix solution and shaked gently; 3. DMSO solution of the compound were added into the kinase reaction mixture using an acoustic technique (Echo 550; nanoliter range) and incubated for 20 minutes at room temperature; 4. ^33P-ATP (specific activity, 10 μCi/μL) was added into the reaction mixture to stimulate the reaction; 5. Incubated for 2 hours at room temperature; 6. Kinase activity was detected by filter-binding method.

Sequence of Wee1 (P30291 whole entry): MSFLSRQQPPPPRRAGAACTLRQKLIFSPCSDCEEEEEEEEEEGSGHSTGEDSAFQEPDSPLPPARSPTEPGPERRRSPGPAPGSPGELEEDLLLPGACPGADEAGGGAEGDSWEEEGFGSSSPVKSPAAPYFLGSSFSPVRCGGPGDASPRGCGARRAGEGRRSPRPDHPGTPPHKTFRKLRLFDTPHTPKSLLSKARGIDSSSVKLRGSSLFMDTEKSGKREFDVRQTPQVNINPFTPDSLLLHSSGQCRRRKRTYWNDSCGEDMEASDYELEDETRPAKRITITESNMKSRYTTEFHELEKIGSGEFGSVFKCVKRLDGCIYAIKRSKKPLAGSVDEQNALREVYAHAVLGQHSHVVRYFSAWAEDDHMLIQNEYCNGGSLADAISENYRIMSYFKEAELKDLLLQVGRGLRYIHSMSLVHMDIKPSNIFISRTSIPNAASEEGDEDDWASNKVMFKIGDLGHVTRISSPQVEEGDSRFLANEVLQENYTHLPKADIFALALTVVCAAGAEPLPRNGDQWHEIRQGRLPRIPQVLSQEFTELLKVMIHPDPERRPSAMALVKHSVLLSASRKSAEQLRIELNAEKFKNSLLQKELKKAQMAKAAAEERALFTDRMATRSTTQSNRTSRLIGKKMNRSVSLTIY

Row | Structure (SMILES) | IC50 [nM]
1 | CCn1c(=O)c2cnc(Nc3ccc(N4CCC5(CCN(C)CC5)CC4)cc3)nc2n1-c1ccccc1 [Embodiment 19, 2-ethyl-6-((4-(9-methyl-3,9-diazaspiro[5.5]undecan-3-yl)phenyl)amino)-1-phenyl-1H-pyrazolo[3,4-d](2H)-one] | 83.2
2 | CN1CCC2(CC1)CCN(c1ccc(Nc3ncc4c(=O)n(CC(F)F)n(-c5ccccc5)c4n3)cc1)CC2 [Embodiment 22, 2-(2,2-difluroethyl)-6-((4-(9-methyl-3,9-diazaspiro[5.5]undecan-3-yl)phenyl)amino)-1-phenyl-1H-pyrazolo[3,4-d](2H)-one] | 239
3 | CN1CCC2(CC1)CCN(c1ccc(Nc3ncc4c(=O)n(Cc5ccccc5)n(-c5ccccc5)c4n3)cc1)CC2 [Embodiment 23, 2-benzyl-6-((4-(9-methyl-3,9-diazaspiro[5.5]undecane-3-yl)phenyl)amino)-1-phenyl-1H-pyrazolo[3,4-d](2H)-one] | 79.6
4 | CCCn1c(=O)c2cnc(Nc3ccc(N4CCC5(CCN(C)CC5)CC4)cc3)nc2n1-c1cccc(C(C)(C)O)n1 [Embodiment 24, 1-(6-(2-hydroxypropan-2-yl)pyridin-2-yl)-6-((4-(9-methyl-3,9-diazaspiro[5.5]undecan-3-yl)phenyl)amino)-2-propyl-1H-pyrazolo[3,4-d]pyrimidin-3(2H)-one] | 48.8
5 | C=CCn1c(=O)c2cnc(Nc3ccc(N4CCC5(CCN(C)CC5)CC4)cc3)nc2n1-c1cccc(Cl)n1 [Embodiment 25, 2-allyl-1-(6-chloropyridin-2-yl)-6-((4-(9-methyl-3,9-diazaspiro[5.5]undecan-3-yl)phenyl)amino)-1H-pyrazolo[3,4-d]pyrimidin-3(2H)-one] | 20.4
6 | C=CCn1c(=O)c2cnc(Nc3ccc(N4CCC5(CCN(C)CC5)CC4)cc3)nc2n1-c1ccc(Cl)cn1 [Embodiment 26, 2-allyl-1-(5-chloropyridin-2-yl)-6-((4-(9-methyl-3,9-diazaspiro[5.5]undecan-3-yl)phenyl)amino)-1H-pyrazolo[3,4-d]pyrimidin-3(2H)-one] | 14.1
7 | C=CCn1c(=O)c2cnc(Nc3ccc(N4CCC5(CCN(C)CC5)CC4)cc3)nc2n1-c1cccc(F)n1 [Embodiment 27, 2-allyl-1-(6-fluoropyridin-2-yl)-6-((4-(9-methyl-3,9-diazaspiro[5.5]undecane-3-yl)phenyl)amino)-1H-pyrazolo[3,4-d]pyrimidin-3(2H)-one] | 24.9
8 | C=CCn1c(=O)c2cnc(Nc3ccc(N4CCC5(CCN(C)CC5)CC4)cc3)nc2n1-c1ccc(F)cn1 [Embodiment 28, 2-allyl-1-(5-fluoropyridin-2-yl)-6-((4-(9-methyl-3,9-diazaspiro[5.5]undecan-3-yl)phenyl)amino)-1H-pyrazolo[3,4-d]pyrimidin-3(2H)-one] | 13.2
9 | C=CCn1c(=O)c2cnc(Nc3ccc(N4CCC5(CCN(C(=O)OC)CC5)CC4)cc3)nc2n1-c1cccc(C(C)(C)O)n1 [Embodiment 31, methyl-9-(4-((2-allyl-1-(6-(2-hydroxypropan-2-yl)pyridin-2-yl)-3-oxo-2,3-dihydro-1H-pyrazolo[3,4-d]pyrimidin-6-yl)amino)phenyl)-3,9-diazaspiro[5.5]undecan-3-ethyl carboxylate] | 15
10 | C=CCn1c(=O)c2cnc(Nc3ccc(N4CCC5(CCN(C)CC5)CC4)c(F)c3)nc2n1-c1cccc(C(C)(C)O)n1 [Embodiment 34, 2-allyl-6((3-fluoro-4-(9-methyl-3,9-diazaspiro[5.5]undecan-3-yl)phenyl)amino)-1-(6-(2-hydroxypropan-2-yl)pyridin-2-yl)-1H-pyrazolo[3,4-d]pyrimidin-3(2H)-one] | 120
11 | C=CCn1c(=O)c2cnc(Nc3ccc(N4CCC5(CCN(C)CC5)CC4)cc3C)nc2n1-c1cccc(C(C)(C)O)n1 [Embodiment 35, 2-allyl-1-(6-(2-hydroxypropan-2-yl)pyridin-2-yl)-6((2-methyl-4-(9-methyl-3,9-diazaspiro[5.5]undecan-3-yl)phenyl)amino)-1H-pyrazolo[3,4-d]pyrimidine-3(2H)-one] | 241
12 | C=CCn1c(=O)c2cnc(Nc3ccc(N4CCC5(CCN(C)CC5)CC4)c(C)c3)nc2n1-c1cccc(C(C)(C)O)n1 [Embodiment 36, 2-allyl-1-(6-(2-hydroxypropan-2-yl)pyridin-2-yl)-6((3-methyl-4-(9-methyl-3,9-diazaspiro[5.5]undecan-3-yl)phenyl)amino)-1H-pyrazolo[3,4-d]pyrimidine-3(2H)-one] | 57.1
13 | C=CCn1c(=O)c2cnc(Nc3ccc(N4CCC5(CCN(C)CC5)CC4)cc3OC)nc2n1-c1cccc(C(C)(C)O)n1 [Embodiment 37, 2-allyl-1-(6-(2-hydroxypropan-2-yl)pyridin-2-yl)-6((2-methoxy-4-(9-methyl-3,9-diazaspiro[5.5]undecan-3-yl)phenyl)amino)-1H-pyrazolo[3,4-d]pyrimidin-3(2H)-one] | 328
14 | C=CCn1c(=O)c2cnc(Nc3ccc(N4CCC5(CCN(C)CC5)CC4)c(OC)c3)nc2n1-c1cccc(C(C)(C)O)n1 [Embodiment 38, 2-allyl-1-(6-(2-hdyroxypropan-2-yl)pyridin-2-yl)-6((3-methoxy-4-(9-methyl-3,9-diazaspiro[5.5]undecan-3-yl)phenyl)amino)-1H-pyrazolo[3,4-d]pyrimidine-3(2H)-one] | 20.7
15 | C=CCn1c(=O)c2cnc(Nc3ccc(N4CCC5(CCN(C)CC5)CC4)cc3)nc2n1-c1cccc(C2(O)CCC2)n1 [Embodiment 40, 2-allyl-1-(6-(1-hydroxycyclobutyl)pyridin-2-yl)-6-((4-(9-methyl-3,9-diazaspiro[5.5]undecan-3-yl)phenyl)amino)-1H-pyrazolo[3,4-d]pyrimidin-3(2H)-one] | 30.7
16 | C=CCn1c(=O)c2cnc(Nc3ccc(N4CCC5(CCN(C)CC5)CC4)cc3)nc2n1-c1cccc(C2(O)COC2)n1 [Embodiment 42, 2-allyl-1-(6-(3-hydroxyoxetan-3-yl)pyridin-2-yl)-6-((4-(9-methyl-3,9-diazaspiro[5.5]undecan-3-yl)phenyl)amino)-1H-pyrazolo[3,4-d]pyrimidin-3(2H)-one] | 17.4
17 | C=CCn1c(=O)c2cnc(Nc3ccc(N4CCC5(CCN(C)CC5)CC4)cc3)nc2n1-c1cccc(C(F)(F)F)n1 [Embodiment 46, 2-allyl-6-((4-(9-methyl-3,9-diazaspiro[5.5]undecane-3-yl)phenyl)amino)-1-(6-(trifluoromethyl)pyridin-2-yl)-1H-pyrazolo[3,4-d]pyrimidine-3(2H)-one] | 44.6

Results, then the compound that gave them:

Row | IC50 [nM] | Structure (SMILES)
18 | 13.1 | C=CCn1c(=O)c2cnc(Nc3ccc(N4CCC5(CCN(C)CC5)CC4)cc3)nc2n1-c1cccc(C(C)(O)C(F)(F)F)n1 (stereo not shown) [Embodiment 41, 2-allyl-6-((4-(9-methyl-3,9-diazaspiro[5.5]undecan-3-yl)phenyl)amino)-1-(6-(1,1,1-trifluoro-2-hydroxypropan-2-yl)pyridin-2-yl)-1H-pyrazolo[3,4-d]pyrimidin-3(2H)-one]
19 | 12.6 | C=CCn1c(=O)c2cnc(Nc3ccc(N4CCC5(CCN(C)CC5)CC4)cc3)nc2n1-c1cccc(N2CCCC2=O)n1 [Embodiment 44]
20 | 7.4 | C=CCn1c(=O)c2cnc(Nc3ccc(N4CCC5(CCN(C)CC5)CC4)cc3)nc2n1-c1cccc(C2CC2)n1 [Embodiment 45, 2-allyl-1-(6-cyclopropylpyridin-2-yl)-6-((4-(9-methyl-3,9-diazaspiro[5.5]undecan-3-yl)phenyl)amino)-1H-pyrazolo[3,4-d]pyrimidin-3(2H)-one]
21 | 3 | C=CCn1c(=O)c2cnc(Nc3ccc(N4CCC5(CCN(C)CC5)CC4)cc3)nc2n1-c1cccc(OC)n1 [Embodiment 47, 2-allyl-1-(6-methoxypyridin-2-yl)-6-((4-(9-methyl-3,9-diazaspiro[5.5]undecan-3-yl)phenyl)amino)-1H-pyrazolo[3,4-d]pyrimidin-3(2H)-one]
22 | 6.3 | C=CCn1c(=O)c2cnc(Nc3ccc(N4CCC5(CCN(C)CC5)CC4)cc3)nc2n1-c1cccc(OC(C)C)n1 [Embodiment 48, 2-allyl-1-(6-isopropoxypyridin-2-yl)-6-((4-(9-methyl-3,9-diazaspiro[5.5]undecan-3-yl)phenyl)amino)-1H-pyrazolo[3,4-d]pyrimidin-3(2H)-one]
23 | 3.1 | C=CCn1c(=O)c2cnc(Nc3ccc(N4CCC5(CCN(C)CC5)CC4)cc3)nc2n1-c1cccc(C(C)(F)F)n1 [Embodiment 49, 2-allyl-1-(6-(1,1-difluoroethyl)pyridin-2-yl)-6-((4-(9-methyl-3,9-diazaspiro[5.5]undecan-3-yl)phenyl)amino)-1H-pyrazolo[3,4-d]pyrimidin-3(2H)-one]
24 | 2.5 | C=CCn1c(=O)c2cnc(Nc3ccc(N4CCC5(CCN(C)CC5)CC4)cc3)nc2n1-c1cccc(OC2CC2)n1 [Embodiment 50, 2-allyl-1-(6-cyclopropoxypyridin-2-yl)-6-((4-(9-methyl-3,9-diazaspiro[5.5]undecan-3-yl)phenyl)amino)-1H-pyrazolo[3,4-d]pyrimidin-3(2H)-one]
25 | 2.8 | C=CCn1c(=O)c2cnc(Nc3ccc(N4CCC5(CCN(C)CC5)CC4)cc3)nc2n1-c1cccc(OCC)n1 [Embodiment 51, 2-allyl-1-(6-ethoxypyridin-2-yl)-6-((4-(9-methyl-3,9-diazaspiro[5.5]undecan-3-yl)phenyl)amino)-1H-pyrazolo[3,4-d]pyrimidin-3(2H)-one]
